Inhibits prolyl endopeptidase and IC50 data for 16 compounds are collected here from patent US4977180A, “Novel prolinal derivatives” (Ono Pharmaceutical Co., Ltd., priority 1987, dated 1990).

Where a SMILES comes first, the peptide text is derived from it. [ ]: non-standard residue; d: D form. The star is where a group is joined. ξ: configuration not given here. Cbz = O=C(OCc1ccccc1)*; ξP = O=C(O)C1CCCN1; CH2Cl = ClC*

T1 sequence (Q9XTA2 whole entry): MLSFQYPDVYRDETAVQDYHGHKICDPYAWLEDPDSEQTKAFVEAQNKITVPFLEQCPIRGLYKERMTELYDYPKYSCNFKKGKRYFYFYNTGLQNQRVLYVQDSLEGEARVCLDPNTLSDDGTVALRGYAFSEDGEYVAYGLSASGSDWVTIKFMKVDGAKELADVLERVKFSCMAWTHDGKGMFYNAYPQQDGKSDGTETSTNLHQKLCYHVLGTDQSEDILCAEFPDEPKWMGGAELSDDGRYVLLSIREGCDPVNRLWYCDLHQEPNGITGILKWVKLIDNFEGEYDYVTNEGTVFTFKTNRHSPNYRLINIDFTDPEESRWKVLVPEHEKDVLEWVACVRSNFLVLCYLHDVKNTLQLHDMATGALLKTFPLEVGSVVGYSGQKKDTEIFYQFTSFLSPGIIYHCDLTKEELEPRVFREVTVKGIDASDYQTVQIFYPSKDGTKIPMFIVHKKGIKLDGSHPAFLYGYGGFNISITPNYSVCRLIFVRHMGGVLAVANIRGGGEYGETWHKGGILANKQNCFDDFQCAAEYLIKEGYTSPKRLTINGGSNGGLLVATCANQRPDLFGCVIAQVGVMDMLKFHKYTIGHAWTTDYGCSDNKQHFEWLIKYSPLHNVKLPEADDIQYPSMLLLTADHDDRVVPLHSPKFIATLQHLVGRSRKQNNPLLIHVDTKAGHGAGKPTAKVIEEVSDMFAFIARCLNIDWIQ

The first experiment has as its system prolyl endopeptidase.
Assay: not given
Particulars: in words; J. Neurochem., 41, 69 (1983); cited from earlier work.
As to `O=CC1CCCN1C(=O)[C@@H]1CCCN1C(=O)OCc1ccccc1` (stereo partly drawn) [N-benzyloxycarbonyl-L-propyl-prolinal] (Cbz-Pro-[ξP]-aldehyde), the inhibits prolyl endopeptidase entry is given as “strongly inhibits prolyl endopeptidase”.

Take `O=C(NCC(=O)N1CCC[C@H]1C(=O)CCl)OCc1ccccc1` [N-benzyloxycarbonyl-glycyl-L-prolyl-chloromethane] (Cbz-Gly-Pro-CH2Cl): the inhibits prolyl endopeptidase result is listed as “strongly inhibits prolyl endopeptidase”.

A further experiment has as its target T1, prolyl endopeptidase (Bos taurus, UniProt Q9XTA2).
T1 construct: prolyl endopeptidase which was purified from bovine brain; from tissue; host or cells: bovine brain
The experiment can be described thus: Prolyl endopeptidase inhibitory activity in vitro. The format is biochemical. Conditions: prolyl endopeptidase purified from bovine brain, pH 7.5, 37° C., substrate N-benzyloxycarbonyl-glycyl-prolyl-p-nitroanilide, 30 mins' incubation, read-out: Concentration for 50% inhibition IC50. As to the method:
Inhibitory activity of prolyl endopeptidase in vitro was measured by the following test system.
A mixed solution of 20 mM tris-HCl buffer (pH 7.5; 935 μl; containing 10 mM EDTA and 10 mM mercaptoethanol), a solution of a compound of the present invention in DMSO (10 μl) and a solution of prolyl endopeptidase which was purified from bovine brain (0.13 unit; prepared by the method described in J. Biochem., 94, 1179 (1983)) in tris-HCl buffer (15 μl) was preincubated for 15 mins at 37° C.
To the solution, 5 mM of N-benzyloxycarbonyl-glycyl-prolyl-p-nitroanilide (40 μl) in a mixture of 40% dioxane-60% water was added. The solution was incubated for 1 min at the same temperature.
Optical absorption (a1) at 405 nm of the solution, and optical absorption (a2) at 405 nm of the solution after 30 mins' further incubation at 37° C. were measured.
Optical absorptions (b1 and b2) of the solutions using DMSO instead of the solution of the compound of the present invention were also measured.
Inhibitory ratio was calculated by the following expression and IC50 (required concentration for 50% inhibition) was obtained (See Protein, Nucleic acid and Enzyme 25(6), 513, 1980.). [formula]
On to `COc1ccc(CCC(=O)CCC(=O)N2CCC[C@H]2C=O)cc1` [1 (g), N-[6-(4-methoxyphenyl)-4-oxohexanoyl]-L-prolinal], for which the IC50 turned out to be 84 nM.

In the case of `O=C[C@@H]1CCCN1C(=O)CCC(=O)CCc1ccc(C(F)(F)F)cc1` [1 (m), N-[4-oxo-6-(p-trifluoro-methylphenyl)hexanoyl]-L-prolinal], the IC50 amounted to 15 nM.

Take `O=C[C@@H]1CCCN1C(=O)CCC(=O)CCCCc1ccccc1` [1 (f), N-(4-oxo-8-phenyloctanoyl)-L-prolinal]: the IC50 came out at 62 nM.

`O=C[C@@H]1CCCN1C(=O)[C@@H]1CCC[C@H]1C(=O)CCc1ccccc1` (mixture of isomers) [1 (b), N-[trans-2-(3-phenylpropanoyl)cyclopentanecarbonyl]-L-prolinal]: the IC50 is 14 nM.

As for `O=C[C@@H]1CCCN1C(=O)CCC(=O)CCCc1ccccc1` [Example 1, N-(7-phenyl-4-oxoheptanoyl)-L-prolinal], the IC50 worked out at 27 nM.

On to `O=C[C@@H]1CCCN1C(=O)CCC(=O)CCc1ccc(Cl)cc1` [1 (h), N-[6-(4-chlorophenyl)-4-oxohexanoyl]-L-prolinal], for which the IC50 was 29 nM.

`O=C[C@@H]1CCCN1C(=O)CCC(=O)CCc1ccccc1` [1 (a), N-(6-phenyl-4-oxohexanoyl) L-prolinal]: the IC50 was determined as 120 nM.

As to `Cc1ccc(CCC(=O)CCC(=O)N2CCC[C@H]2C=O)cc1` [1 (i), N-[6-(4-methylphenyl)-4-oxohexanoyl]-L-prolinal], the IC50 was 11 nM.

Take `O=C[C@@H]1CCCN1C(=O)CCC(=O)CCc1cccc2ccccc12` [1 (k), N-[6-(1-naphthyl)-4-oxohexanoyl]-L-prolinal]: the IC50 amounted to 18 nM.

With `CC(C)C(C(=O)CCCCc1ccccc1)C(=O)N1CCC[C@H]1C=O` (stereo partly drawn) [1 (d), N-(2RS-isopropyl-3-oxo-7-phenylheptanoyl)-L-prolinal], the IC50 stood at 150 nM.

With `O=C[C@@H]1CCCN1C(=O)[C@@H]1CCCC[C@H]1C(=O)CCc1ccccc1` (mixture of isomers) [1 (c), N-[trans-2-(3-phenylpropanoyl)cyclohexanecarbonyl]-L-prolinal], the IC50 was determined as 24 nM.

As for `O=C[C@@H]1CCCN1C(=O)CCC(=O)CCc1ccc2ccccc2c1` [1 (l), N-[6-(2-naphthyl)-4-oxohexanoyl]-L-prolinal], the IC50 turned out to be 39 nM.

On to `O=C[C@@H]1CCCN1C(=O)CCC(=O)CCc1cccc(Cl)c1` [1 (e), N-[6-(3-chlorophenyl)-4-oxohexanoyl]-L-prolinal], for which the IC50 is 50 nM.

Take `O=C[C@@H]1CCCN1C(=O)CCC(=O)CCCc1ccccc1[N+](=O)[O-]` [1 (j), N-[7-(2-nitrophenyl)-4-oxoheptanoyl]-L-prolinal]: the IC50 turned out to be 32 nM.
